Measured values as given in PMC7717712, “The effects of cardiac drugs on human erythrocyte carbonic anhydrase I and II isozymes” (Journal of Enzyme Inhibition and Medicinal Chemistry, 2020).
“Also recorded” adds a separate entry of the source. Where a name gives a salt, the structure may show the parent alone.

Tests used:
[1] = target: T1, human carbonic anhydrase I (hCA I) (Homo sapiens, UniProt P00915); assay: CO2 hydratase activity assay (Maren method), hCA I; format: biochemical
T1 construct: from tissue
Protocol: (§1) Blood samples (25 ml) from healthy human volunteers were collected. They were centrifuged at 1000g for 20 min at 4 °C, and the supernatant was removed. The packed erythrocytes were washed three times with 0.9% NaCl and then were hemolyzed in cold water. The pH of the hemolysate was adjusted to 8.5 with the solid Tris base. The 25-ml hemolysate was applied to an affinity column containing y Sepharose 4B-ethylene diamine-4-isothiocyanato-benzenesulfonamide[14]. CA isozymes were then eluted with 0.1 M NaCl/25 mM Na2HPO4 (pH 6.3) and 0.1 M CH3COONa/0.5 M NaClO4 (pH 5.6), which recovered hCA I and II, respectively.
(§2) CA activity was measured by the Maren method based on the determination of the time required for the pH to decrease from 10.0 to 7.4 due to CO2 hydration. The assay solution was 0.5 M Na2CO3/0.1 M NaHCO3 (pH 10.0), and phenol red was added as the pH indicator. Carbon dioxide-hydratase activity was calculated in enzyme units (EU) with the following equation: t0 – tc/tc, where t0 and tc are the times for the pH change of the nonenzymatic and the enzymatic reactions, respectively.
(§3) The drugs were triturated in a porcelain mortar pestle. Stock solutions of both drugs were prepared in dimethyl sulfoxide (DMSO). Different concentrations of the drugs were added to the enzyme activity determination medium with a total volume of 4.2 ml. The duration (in seconds) of the colour change from red to yellow in solution was measured in a 10-ml glass tube with a diameter of 1 cm. Control cuvette activity in the absence of the inhibitor was set at 100%. All compounds were tested in triplicate at each concentration used. For each inhibitor, an activity %–[inhibitor] graph was drawn (data not shown).

[2] = target: T2, human carbonic anhydrase II (hCA II) (Homo sapiens, UniProt P00918); assay: CO2 hydratase activity assay (Maren method), hCA II; format: biochemical
T2 construct: from tissue
Protocol: as §1, §2, §3

[3] = target: T1, human carbonic anhydrase I (hCA I); assay: Esterase activity assay (4-nitrophenyl-acetate), hCA I; format: biochemical
Protocol: (§4) Blood samples (25 ml) from healthy human volunteers were collected. They were centrifuged at 1000g for 20 min at 4 °C, and the supernatant was removed. The packed erythrocytes were washed three times with 0.9% NaCl and then were hemolyzed in cold water. The pH of the hemolysate was adjusted to 8.5 with the solid Tris base. The 25-ml hemolysate was applied to an affinity column containing y Sepharose 4B-ethylene diamine-4-isothiocyanato-benzenesulfonamide[14].
(§5) The inhibitory effects of the drugs on enzyme activities were tested under in vitro conditions.

[4] = target: T2, human carbonic anhydrase II (hCA II); assay: Esterase activity assay (4-nitrophenyl-acetate), hCA II; format: biochemical
Protocol: as §4, §5

CYP3A4 = tested on: CYP3A4; set-up: method as in earlier work; details: concentration-dependent; read-out: IC50, CYP3A4 enzyme activity; cited from earlier work
[5] = tested on: 15 hCA isoforms (hCA I–XIV); details: cited from earlier work
[6] = tested on: CA-I levels / atherosclerosis; set-up: method as in PMID 31354482; details: cited from earlier work
aldehyde oxidase = tested on: aldehyde oxidase; set-up: method as in PMID 14681337; details: read-out: aldehyde oxidase inhibition (concentration printed without endpoint name); cited from earlier work
[7] = target: glucose-6-phosphate dehydrogenase; set-up: method as in PMID 29947262; details: cited from earlier work
[8] = hydratase method, enzyme purified from human erythrocytes, read-out: IC50 (hydratase) hCA I
[9] = hydratase method, enzyme purified from human erythrocytes, read-out: IC50 (hydratase) hCA II
[10] = esterase method, 4-nitrophenyl-acetate, 348 nm, 25 °C, read-out: IC50 (esterase) hCA I
[11] = esterase method, 4-nitrophenyl-acetate, 348 nm, 25 °C, read-out: IC50 (esterase) hCA II

T1 sequence (P00915 whole entry): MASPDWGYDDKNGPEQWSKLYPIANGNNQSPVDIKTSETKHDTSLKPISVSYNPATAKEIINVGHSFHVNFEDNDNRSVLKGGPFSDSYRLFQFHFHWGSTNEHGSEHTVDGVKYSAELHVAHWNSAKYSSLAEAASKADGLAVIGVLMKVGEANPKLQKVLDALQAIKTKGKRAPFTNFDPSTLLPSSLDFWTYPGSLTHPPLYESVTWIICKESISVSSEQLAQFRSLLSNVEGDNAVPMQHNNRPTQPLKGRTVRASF

Structure (SMILES)	IC50 [1, 8]	IC50 [2, 9]	IC50 [3, 10]	IC50 [4, 11]	further results
CC(C)c1c(C(=O)Nc2ccccc2)c(-c2ccccc2)c(-c2ccc(F)cc2)n1CC[C@@H](O)C[C@@H](O)CC(=O)O [Atorvastatin]	243 µM	390 µM	7.75 µM	9.85 µM	IC50 (CYP3A4): […]; inhibition of the 15 hCA isoforms (hCA I–XIV) [5]: submicromolar–low nanomolar inhibition
CCCCCCOC(=O)NC(=N)c1ccc(NCc2nc3cc(C(=O)N(CCC(=O)OCC)c4ccccn4)ccc3n2C)cc1 [Dabigatran etexilate]	113 µM	116 µM	15.3 µM	15.3 µM	
CC(C)NCC(O)COc1cccc2ccccc12 (stereo not shown) [Propranolol]	1.77 µM				
CC(=O)/N=c1/sc(S(N)(=O)=O)nn1C [methazolamide]					CA-I levels / CA-I expression ([6]; animal atherosclerosis model): decreased CA-I levels; also recorded: suppresses CA-I expression; atherosclerosis [6]: significantly reduces atherosclerosis
CCOC(=O)C1=C(C)NC(C)=C(C(=O)OCC)C1c1ccccc1/C=C/C(=O)OC(C)(C)C [Lacidipine]	696 µM	482 µM	150 µM	155 µM	
CCN(CC)CC(=O)Nc1c(C)cccc1C [Lidocaine HCl]	19.6 µM	2 µM			
CCCCc1oc2ccccc2c1C(=O)c1cc(I)c(OCCN(CC)CC)c(I)c1 [Amiodorane hydrochloride]	389 µM	405 µM	8.47 µM	12.4 µM	
CCCCC1=NC2(CCCC2)C(=O)N1Cc1ccc(-c2ccccc2-c2nnn[nH]2)cc1 [Irbesartan]	235 µM	239 µM	345 µM	335 µM	
COc1ccc(-n2nc(C(N)=O)c3c2C(=O)N(c2ccc(N4CCCCC4=O)cc2)CC3)cc1 [Apixaban]	88.4 µM	110 µM	384 µM	386 µM	
CCCSc1nc(N[C@@H]2C[C@H]2c2ccc(F)c(F)c2)c2nnn([C@@H]3C[C@H](OCCO)[C@@H](O)[C@H]3O)c2n1 [Ticagrelor]	168 µM	195 µM	54 µM	52.1 µM	
O=C(NC[C@H]1CN(c2ccc(N3CCOCC3=O)cc2)C(=O)O1)c1ccc(Cl)s1 [Rivaroxaban]	220 µM	204 µM	189 µM	244 µM	
COC(=O)C1=C(C)NC(C)=C(C(=O)OC(C)(C)CN(C)CCC(c2ccccc2)c2ccccc2)C1c1cccc([N+](=O)[O-])c1 (stereo not shown) [Lercanidipine hydrochloride]	201 µM	159 µM	294 µM	423 µM	
CCOC(=O)C1=C(COCCN)NC(C)=C(C(=O)OC)C1c1ccccc1Cl (stereo not shown) [Amlodipine]	133 µM	126 µM	38.5 µM	38.8 µM	IC50 (aldehyde oxidase): 5.5 µM
COCCc1ccc(OCC(O)CNC(C)C)cc1 (stereo not shown) [Metoprolol succinate]	400 µM	168 µM	319 µM	329 µM	
COc1ccccc1OCC(O)CN1CCN(CC(=O)Nc2c(C)cccc2C)CC1 (stereo not shown) [Ranolazine]	503 µM	544 µM	600 µM	645 µM	
COc1ccc(CN2CCNCC2)c(OC)c1OC [Trimetazidine dihydrochloride]	196 µM	151 µM	112 µM	112 µM	
CCOC(=O)[C@H](CCc1ccccc1)N[C@@H](C)C(=O)N1[C@H](C(=O)O)C[C@@H]2CCC[C@@H]21 [Ramipril]	281 µM	154 µM	32.3 µM	37.9 µM	

Structure (SMILES)	IC50 [1, 8]	IC50 [2, 9]	IC50 [3, 10]	IC50 [4, 11]	further results
COc1cc2c(cc1OC)CC(=O)N(CCCN(C)C[C@H]1Cc3cc(OC)c(OC)cc31)CC2 [Ivabradine]			107 µM	117 µM	
CCCNCC(O)COc1ccccc1C(=O)CCc1ccccc1 (stereo not shown) [Propafenone]	228 µM	235 µM	2.8 µM	3.02 µM	Inhibition type, hCA I ([3]; Lineweaver–Burk plot): non-competitive; Ki ([3]; from Lineweaver–Burk plot): 2.38 µM; Inhibition type, hCA II ([4]; Lineweaver–Burk plot): non-competitive; Ki ([4]; from Lineweaver–Burk plot): 2.97 µM
CC(=O)Oc1cc2c(s1)CCN(C(C(=O)C1CC1)c1ccccc1F)C2 (stereo not shown) [Prasugrel]	155 µM	205 µM	330 µM	429 µM	
COC(=O)[C@H](c1ccccc1Cl)N1CCc2sccc2C1 [Clopidogrel]	250 µM	364 µM	94 µM	103 µM	
COc1ccc([C@@H]2Sc3ccccc3N(CCN(C)C)C(=O)[C@@H]2OC(C)=O)cc1 [Diltiazem]	624 µM	477 µM	232 µM	325 µM	
O=[N+]([O-])O[C@@H]1CO[C@H]2[C@@H]1OC[C@@H]2O [Isosorbide mononitrate]					IC50 [1]: 160 µM; IC50 [2]: 160 µM; IC50 [3]: 6.08 µM; IC50 [4]: 5.5 µM
COc1cc2nc(N3CCN(C(=O)C4COc5ccccc5O4)CC3)nc(N)c2cc1OC (stereo not shown) [Doxazosin mesylate]	228 µM	215 µM	303 µM	417 µM	
C[C@H]1O[C@@H](O[C@H]2[C@@H](O)C[C@H](O[C@H]3[C@@H](O)C[C@H](O[C@H]4CC[C@@]5(C)[C@H](CC[C@@H]6[C@@H]5C[C@@H](O)[C@]5(C)[C@@H](C7=CC(=O)OC7)CC[C@]65O)C4)O[C@@H]3C)O[C@@H]2C)C[C@H](O)[C@@H]1O [Digoxin]	74.9 µM	88 µM	23.1 µM	32.8 µM	
C[C@H](CS)C(=O)N1CCC[C@H]1C(=O)O [Captopril]	121 µM	131 µM	1.58 µM	6.25 µM	
CCOc1nc2cccc(C(=O)OC(C)OC(=O)OC3CCCCC3)c2n1Cc1ccc(-c2ccccc2-c2nnn[nH]2)cc1 (stereo not shown) [Candesartan cilexetil]	185 µM	271 µM	342 µM	177 µM	
CC(C)NCC(O)COc1ccc(COCCOC(C)C)cc1 (stereo not shown) [Bisoprolol hemifumarate]	107 µM	221 µM	156 µM	244 µM	
NS(=O)(=O)c1cc(C(=O)O)c(NCc2ccco2)cc1Cl [Furosemide]					IC50 [7]: 526 µM
CN1CCc2nc(C(=O)N[C@@H]3C[C@@H](C(=O)N(C)C)CC[C@@H]3NC(=O)C(=O)Nc3ccc(Cl)cn3)sc2C1 [Edoxaban]	94 µM	67 µM	45.5 µM	34.2 µM	
OC(CNCC(O)C1CCc2cc(F)ccc2O1)C1CCc2cc(F)ccc2O1 (stereo not shown) [Nebivolol hydrochloride]	73.7 µM	95.3 µM	404 µM	410 µM	
O=[N+]([O-])OCC(CO[N+](=O)[O-])O[N+](=O)[O-] [Glyceryl trinitrate]					IC50 [1]: 220 µM; IC50 [2]: 272 µM
COc1ccccc1OCCNCC(O)COc1cccc2[nH]c3ccccc3c12 (stereo not shown) [Carvedilol]	61.2 µM	79 µM	20.2 µM	46.4 µM	
CC(=O)Oc1ccccc1C(=O)O [Acetylsalicylic acid]	252 µM		43 µM		
